According to patent publication US8278436B2, “Glycosylated warfarin analogs and uses thereof” (priority 2008, dated 2012):
Where two headings read alike, the source gives them in different places.

Legend:
Assay type in all cases: cell-based
[1] = tested on: SF-268 human CNS adenocarcinoma cells; assay: cell proliferation assay, SF-268
Source text: (§1) In this Example, the warfarin neoglycosides of the invention were screened for anti-tumor activity in cell proliferation assays using the following tumor cells lines: A549—human lung adenocarcinoma; H1299—human lung adenocarcinoma (p53 null); HCT-15—human colorectal adenocarcinoma; HT-29—human colorectal adenocarcinoma; MCF7—human breast adenocarcinoma; NCI-H460—human lung adenocarcinoma; SF-268—human CNS adenocarcinoma; and SKOV-3—human ovarian adenocarcinoma.
(§2) All cell lines were maintained as previously reported (see Langenhan, J. M.; Peters, N. R.; Guzei, I. A.; Hoffmann, F. M.; Thorson, J. S. Proc. Natl. Acad. Sci. USA 2005, 102, 12305-12310, which is incorporated by reference herein). Cells were harvested using 0.25% trypsin and 0.1% EDTA and counted in a Cellometer Auto T4 cell counter (Nexcelom, Inc.) prior to dilution for assay plating. Cells were plated at a denity of 500 cells per well in 50 μL volumes in 384-well clear-bottom tissue culture plates (Corning-Costar, Inc.).
(§3) Compounds were added from the 384-well compound stock plates at a 1:100 dilution using a Biomek FX liquid handler equipped with a 384-channel head (Beckman Coulter, Inc.). The plates were incubated for 7 days at 37° C. in a 5% CO2 atmosphere prior to performing the assays. Calcein AM (acetoxymethyl ester) reagent and EthD-1 (30 μL, 10 μM CAM and 100 μM EthD-1) was added and the cells were incubated for 30 min at 37° C. […] resulting from incubation with Calcein AM and EthD-1 was read using a Safire-2 microplate reader at the appropriate wavelengths. To lyse the cells, 15 μL of CellTiter-Glo reagent (Promega Corporation, Inc.) was added and the cells were incubated for 10 min at room temperature with gentle agitation. The luminescence of each plate was re-read to confirm the observed inhibition.
(§4) IC50s for cell proliferation assays were determined for Calcein AM, the ratio of live/dead cells (Calcein AM/EthD-1), and CellTiter-Glo using XLfit 4.0 as previously described (see Langenhan, J. M.; Peters, N. R.; Guzei, I. A.; Hoffmann, F. M.; Thorson, J. S. Proc. Natl. Acad. Sci. USA 2005, 102, 12305-12310, which is incorporated by reference herein). The IC50 determined using the best fit curve for dosage response from any of the 3 assays is reported as the final IC50.

NCI/ADR-RES = assay: cell proliferation assay, NCI/ADR-RES; details: Table 3 summary of most active compounds
Method: as §2, §3, §4

[2] = tested on: HCT-15 human colorectal adenocarcinoma cells; assay: cell proliferation assay, HCT-15; details: for IC50: Table 3 summary of most active compounds, read-out: HCT15 Colorectal
Source text: as §1, §2, §3
as §4, with “IC50. The best fit curve is defined as the curve with the lowest standard error.” for “IC50.”

[3] = tested on: A549 human lung adenocarcinoma cells; assay: cell proliferation assay, A549; details: read-out: A549 Lung (+p53)
Source text: as §1, §2, §3
as §4, with “IC50. The best fit curve is defined as the curve with the lowest standard error.” for “IC50.”

[4] = tested on: HT-29 human colorectal adenocarcinoma cells; assay: cell proliferation assay, HT-29
Source text: as §1, §2, §3
as §4, with “IC50. The best fit curve is defined as the curve with the lowest standard error.” for “IC50.”

[5] = tested on: NCI-H460 human lung adenocarcinoma cells; assay: cell proliferation assay, NCI-H460
Source text: as §1, §2, §3
as §4, with “IC50. The best fit curve is defined as the curve with the lowest standard error.” for “IC50.”

[6] = tested on: SKOV-3 human ovarian adenocarcinoma cells; assay: cell proliferation assay, SKOV-3; details: read-out: SKOV3 Ovarian
Source text: as §1, §2, §3
as §4, with “IC50. The best fit curve is defined as the curve with the lowest standard error.” for “IC50.”

[7] = tested on: H1299 human lung adenocarcinoma (p53 null) cells; assay: cell proliferation assay, H1299
Source text: as §1, §2, §3, §4

[8] = tested on: MCF7 human breast adenocarcinoma cells; assay: cell proliferation assay, MCF7
Source text: as §1, §2, §3, §4

[9] = Table 3 summary of most active compounds, listed as D-lyxose
[10] = Table 3 summary of most active compounds, listed as L-arabinose
[11] = Table 3 summary of most active compounds, listed as L-lyxose
[12] = Table 3 summary of most active compounds, IC50, read-out: SF268 Giloblast
[13] = Table 3 summary of most active compounds
[14] = Table 3 summary of most active compounds, IC50, read-out: H729 Colorectal
[15] = Homo sapiens, SF-268, read-out: SF268 Giloblast
[16] = Homo sapiens, A549, Table 3 summary of most active compounds
[17] = Homo sapiens, HT-29, read-out: H729 Colorectal
[18] = Homo sapiens, MCF7, Table 3 summary of most active compounds
[19] = Homo sapiens, NCI-H460, Table 3 summary of most active compounds
[20] = Homo sapiens, SK-OV-3, Table 3 summary of most active compounds
[21] = Table 3 summary of most active compounds, listed as D-ribose
[22] = Table 3 summary of most active compounds, listed as L-xylose
[23] = Table 3 summary of most active compounds, listed as L-ribose

SMILES: CON(C(C)CC(c1ccccc1)c1c(O)c2ccccc2oc1=O)C1OCC(O)C(O)C1O (mixture of isomers) [WARF Analog 6]
- IC50 ([1]; Table 3 summary of most active compounds, IC50, listed as D-lyxose, read-out: SF268 Giloblast): 39 µM
- IC50 (NCI/ADR-RES; listed as D-lyxose): 57 µM
- level of activity, in words ([2]; HCT 15 colorectal cell lines, compared with all the neoglycosides tested): highest level of activity
- IC50 ([2]; listed as D-lyxose): 7 µM
- IC50 [3, 9]: 76 µM
- IC50 ([4]; Table 3 summary of most active compounds, IC50, listed as D-lyxose, read-out: H729 Colorectal): 52 µM
- IC50 [5, 9]: > 100 µM
- IC50 [6, 9]: 47 µM

SMILES: CON(C(C)CC(c1ccccc1)c1c(O)c2ccccc2oc1=O)C1OCC(O)C(O)C1O (mixture of isomers) [WARF Analog 15]
- IC50 ([1]; Table 3 summary of most active compounds, IC50, listed as L-arabinose, read-out: SF268 Giloblast): 69 µM
- IC50 [7, 10]: 51 µM
- IC50 (NCI/ADR-RES; listed as L-arabinose): 68 µM
- IC50 ([2]; listed as L-arabinose): 49 µM
- IC50 [3, 10]: 48 µM
- IC50 ([4]; Table 3 summary of most active compounds, IC50, listed as L-arabinose, read-out: H729 Colorectal): 97 µM
- IC50 [8, 10]: 79 µM
- IC50 [5, 10]: > 100 µM
- IC50 [6, 10]: 76 µM

SMILES: CON(C(C)CC(c1ccccc1)c1c(O)c2ccccc2oc1=O)C1OCC(O)C(O)C1O (mixture of isomers) [WARF Analog 23]
- IC50 ([1]; Table 3 summary of most active compounds, IC50, listed as L-lyxose, read-out: SF268 Giloblast): > 100 µM
- IC50 [7, 11]: 30 µM
- IC50 (NCI/ADR-RES; listed as L-lyxose): 56 µM
- IC50 ([2]; listed as L-lyxose): 14 µM
- IC50 [3, 11]: 95 µM
- IC50 ([4]; Table 3 summary of most active compounds, IC50, listed as L-lyxose, read-out: H729 Colorectal): 47 µM
- IC50 [8, 11]: 18 µM
- IC50 [5, 11]: > 100 µM
- IC50 [6, 11]: 60 µM

SMILES: CON(C(C)CC(c1ccccc1)c1c(O)c2ccccc2oc1=O)C1CC(C)(O)C(O)C(C)O1 (mixture of isomers) [WARF Analog 37]
- IC50 [1, 12]: > 100 µM
- IC50 [7, 13]: > 100 µM
- IC50 (NCI/ADR-RES): > 100 µM
- IC50 [2]: 16 µM
- IC50 [3, 13]: > 100 µM
- IC50 [4, 14]: > 100 µM
- IC50 [8, 13]: > 100 µM
- IC50 [5, 13]: > 100 µM
- IC50 [6, 13]: > 100 µM

SMILES: CC(=O)CC(c1ccccc1)c1c(O)c2ccccc2oc1=O (centres unmarked) [WARF Analog A, 4-hydroxy-3-(3-oxo-1-phenylbutyl)-2H-1-benzopyran-2-one, reference compound]
- IC50 [1, 15]: 765 µM
- IC50 (NCI/ADR-RES; Homo sapiens): > 100 µM
- IC50 ([2]; Homo sapiens, HCT-15): 543 µM
- IC50 [3, 16]: 781 µM
- IC50 [4, 17]: 735 µM
- IC50 [8, 18]: 301 µM
- IC50 [5, 19]: 557 µM
- IC50 [6, 20]: 393 µM

SMILES: CONC(C)CC(c1ccccc1)c1c(O)c2ccccc2oc1=O (centres unmarked) [WARF Analog C, 4-hydroxy-3-(3-(methoxyamino)-1-phenylbutyl)-2H-1-benzopyran-2-one]
- IC50 [1, 15]: > 100 µM
- IC50 ([7]; Homo sapiens, NCI-H1299, Table 3 summary of most active compounds): > 100 µM
- IC50 (NCI/ADR-RES; Homo sapiens): > 100 µM
- IC50 ([2]; Homo sapiens, HCT-15): > 100 µM
- IC50 [3, 16]: > 100 µM
- IC50 [4, 17]: > 100 µM
- IC50 [8, 18]: > 100 µM
- IC50 [5, 19]: > 100 µM
- IC50 [6, 20]: > 100 µM

SMILES: CON(C(C)CC(c1ccccc1)c1c(O)c2ccccc2oc1=O)C1OCC(O)C(O)C1O (mixture of isomers) [WARF Analog 22]
- IC50 ([1]; Table 3 summary of most active compounds, IC50, listed as D-ribose, read-out: SF268 Giloblast): 72 µM
- IC50 [7, 21]: 44 µM
- IC50 (NCI/ADR-RES; listed as D-ribose): 66 µM
- IC50 ([2]; listed as D-ribose): 27 µM
- IC50 [3, 21]: > 100 µM
- IC50 ([4]; Table 3 summary of most active compounds, IC50, listed as D-ribose, read-out: H729 Colorectal): 77 µM
- IC50 [8, 21]: 41 µM
- IC50 [5, 21]: > 100 µM
- IC50 [6, 21]: 60 µM

SMILES: CON(C(C)CC(c1ccccc1)c1c(O)c2ccccc2oc1=O)C1O[C@H](COCc2ccccc2)[C@@H](OCc2ccccc2)[C@@H]1OCc1ccccc1 (some centres unmarked) [WARF Analog 42]
- IC50 [1, 12]: 20 µM
- IC50 [7, 13]: 19 µM
- IC50 (NCI/ADR-RES): 20 µM
- IC50 [2]: 11 µM
- IC50 [3, 13]: 27 µM
- IC50 [4, 14]: 19 µM
- IC50 [8, 13]: 29 µM
- IC50 [6, 13]: 27 µM

SMILES: CON(C(C)CC(c1ccccc1)c1c(O)c2ccccc2oc1=O)C1OC(C)C(O)C(O)C1O (mixture of isomers) [WARF Analog 50]
- IC50 ([1]; Table 3 summary of most active compounds, IC50, listed as 6-deoxy-D-glucose, read-out: SF268 Giloblast): > 100 µM
- IC50 (NCI/ADR-RES): > 100 µM
- IC50 ([2]; listed as 6-deoxy-D-glucose): 14 µM
- IC50 [3, 13]: > 100 µM
- IC50 ([4]; Table 3 summary of most active compounds, IC50, listed as 6-deoxy-D-glucose, read-out: H729 Colorectal): > 100 µM
- IC50 [5, 13]: > 100 µM
- IC50 ([6]; Table 3 summary of most active compounds, listed as 6-deoxy-D-glucose): > 100 µM

SMILES: CON(C(C)CC(c1ccccc1)c1c(O)c2ccccc2oc1=O)C1OCC(O)C(O)C1O (mixture of isomers) [WARF Analog 1]
- IC50 [7, 22]: 30 µM
- IC50 (NCI/ADR-RES; listed as L-xylose): 50 µM
- IC50 ([2]; listed as L-xylose): 14 µM
- IC50 [3, 22]: 67 µM
- IC50 ([4]; Table 3 summary of most active compounds, IC50, listed as L-xylose, read-out: H729 Colorectal): 37 µM
- IC50 [8, 22]: 15 µM
- IC50 [5, 22]: > 100 µM
- IC50 [6, 22]: 45 µM

SMILES: CON(C(C)CC(c1ccccc1)c1c(O)c2ccccc2oc1=O)C1OCC(O)C(O)C1O (mixture of isomers) [WARF Analog 25]
- IC50 ([1]; Table 3 summary of most active compounds, IC50, listed as L-ribose, read-out: SF268 Giloblast): > 100 µM
- IC50 (NCI/ADR-RES; listed as L-ribose): 62 µM
- IC50 ([2]; listed as L-ribose): 37 µM
- IC50 [3, 23]: 72 µM
- IC50 ([4]; Table 3 summary of most active compounds, IC50, listed as L-ribose, read-out: H729 Colorectal): 72 µM
- IC50 [8, 23]: 45 µM
- IC50 [5, 23]: > 100 µM
- IC50 [6, 23]: 60 µM
